Where two headings read alike, the source gives them in different places.
Test system: SARS-CoV-2
Format: cell-based, SARS-CoV-2 (BetaCoV/France/IDF0571/2020 strain)
Conditions: for antiviral activity against SARS-CoV-2 (in words): single drug

Row | SMILES | IC50 | antiviral activity against SARS-CoV-2 (in words) | reduction of remdesivir IC50 (in presence of 12.5 μM berberine versus remdesivir alone) | reduction of remdesivir IC50 (in presence of diltiazem (11.5 μM) versus remdesivir alone)
1 | CCOC(=O)c1c(CSc2ccccc2)n(C)c2cc(Br)c(O)c(CN(C)C)c12 [Arbidol (umifenovir)] | 3.54 µM |  |  | 
2 | COc1ccc2cc3[n+](cc2c1OC)CCc1cc2c(cc1-3)OCO2 [Berberine] | 10.6 µM | dose-dependent antiviral responses |  | 
3 | COc1ccc([C@@H]2Sc3ccccc3N(CCN(C)C)C(=O)[C@@H]2OC(C)=O)cc1 [Diltiazem] |  | neither diltiazem nor ribavirin or favipiravir showed antiviral activity |  | 
4 | NC(=O)c1nc(F)c[nH]c1=O [Favipiravir, 6-fluoro-3-hydroxy-2-pyrazinecarboxamine] |  | neither diltiazem nor ribavirin or favipiravir showed antiviral activity |  | 
5 | Cc1cccc(C)c1OCC(=O)N[C@@H](Cc1ccccc1)[C@@H](O)C[C@H](Cc1ccccc1)NC(=O)[C@H](C(C)C)N1CCCNC1=O [Lopinavir] | 5.25 µM |  |  | 
6 | CCC(CC)COC(=O)[C@H](C)N[P@](=O)(OC[C@H]1O[C@@](C#N)(c2ccc3c(N)ncnn23)[C@H](O)[C@@H]1O)Oc1ccccc1 [Remdesivir] | 0.987 µM |  | > 2 fold | up to 8.5 fold
7 | NC(=O)c1ncn([C@@H]2O[C@H](CO)[C@@H](O)[C@H]2O)n1 [Ribavirin, 1-β-D-ribofuranosyl-1,2,4-triazole-3-carboxamide] |  | neither diltiazem nor ribavirin or favipiravir showed antiviral activity |  | 
